# Test results as given in patent publication US9115137B2, “2,3,4,5-tetrahydro-1H-pyrido[4,3-B]indole compounds and methods of use thereof” (priority 2008, dated 2015).
# Legend:
# [1] = molecular target: T1, human recombinant serotonin (5-Hydroxytryptamine) 5-HT7 receptor (Homo sapiens, UniProt P34969); test: Serotonin 5-HT7 radioligand binding ([3H]LSD); settings: compound at 1 μM; CHO cells; read-out: Serotonin (1 μM) 5-HT7, percent inhibition of specific binding
# T1 construct: expressed in transfected cells; host or cells: CHO cells
# Protocol: To evaluate in radioligand binding assays the activity of compounds of the invention, human recombinant serotonin (5-Hydroxytryptamine) 5-HT7 receptor expressed in Chinese hamster ovary (CHO) cells (Roth, B. L. et al., J. Pharmacol. Exp. Ther. 268:1403, 1994; Shen, Y. et al., J. Biol. Chem. 268:18200, 1993) in a modified Tris-HCl buffer (50 mM Tris-HCl, pH 7.4, 10 mM MgCl2, 0.5 mM EDTA) was used. Compounds of invention were incubated with 5.5 nM [^3H] Lysergic acid diethylamide (LSD) for 2 hours at 25° C. Non-specific binding was estimated in the presence of 10 μM Serotonin (5-HT). Receptor proteins were filtered and washed, the filters were then counted to determine [^3H]LSD specifically bound. Compounds were screened at 1 μM or lower, using 1% DMSO as vehicle. Biochemical assay results are presented as the percent inhibition of specific binding in Table 7.
# [2] = molecular target: T2, rat adrenergic α1B receptor (Rattus norvegicus, UniProt P15823); test: Adrenergic α1B radioligand binding ([3H]Prozosin); settings: compound at 1 μM; Wistar Rat liver; read-out: Adrenergic (1 μM) α1B, percent inhibition of specific binding
# T2 construct: obtained from Wistar Rat liver; from tissue; host or cells: Wistar rat liver
# T2 sequence (P15823 1-515): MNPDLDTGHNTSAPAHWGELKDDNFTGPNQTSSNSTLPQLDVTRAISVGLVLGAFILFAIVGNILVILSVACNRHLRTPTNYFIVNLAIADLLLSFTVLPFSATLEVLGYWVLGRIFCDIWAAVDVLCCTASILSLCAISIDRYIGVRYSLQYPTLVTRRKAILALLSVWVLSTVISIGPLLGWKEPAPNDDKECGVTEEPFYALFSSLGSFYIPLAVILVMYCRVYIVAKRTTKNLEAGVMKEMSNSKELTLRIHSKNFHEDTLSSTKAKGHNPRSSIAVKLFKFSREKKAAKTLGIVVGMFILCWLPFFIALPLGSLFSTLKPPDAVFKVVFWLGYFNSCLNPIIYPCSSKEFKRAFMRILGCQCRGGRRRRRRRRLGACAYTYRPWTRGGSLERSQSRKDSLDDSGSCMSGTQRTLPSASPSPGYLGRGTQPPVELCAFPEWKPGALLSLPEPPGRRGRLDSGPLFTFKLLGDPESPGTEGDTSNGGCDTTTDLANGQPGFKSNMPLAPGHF
# Protocol: To evaluate in radioligand binding assays the activity of compounds of the invention, rat adrenergic α1B receptor obtained from Wistar Rat liver (Garcia-S'ainz, J. A. et al., Biochem. Biophys. Res. Commun. 186:760, 1992; Michel A. D. et al. Br. J. Pharmacol. 98:883, 1989) in a modified Tris-HCl buffer (50 mM Tris-HCl buffer, pH 7.4, 0.5 mM EDTA) was used. Compounds of the invention were incubated with 0.25 nM [^3H]Prozosin for 60 minutes at 25° C. Non-specific binding was estimated in the presence of 10 μM phentolamine. Receptor proteins were filtered and washed, the filters were then counted to determine [^3H]Prozosin specifically bound. Compounds were screened at 1 μM or lower, using 1% DMSO as vehicle. Compounds of the invention were tested in this biochemical assay and percent inhibition of specific binding was determined. Biochemical assay results are presented as the percent inhibition of specific binding in Table 6.
# [3] = system: rat central imidazoline I2 receptor; test: Central imidazoline I2 radioligand binding ([3H]Idazoxan); settings: compound at 1 μM; Wistar Rat cerebral cortex
# Protocol: To evaluate in radioligand binding assays the activity of compounds of the invention, rat central imidazoline I2 receptor obtained from Wistar Rat cerebral cortex (Brown, C. M. et al., Br. J. Pharmacol. 99:803, 1990) in a modified Tris-HCl buffer (50 mM Tris-HCl buffer, pH 7.4, 0.5 mM EDTA) was used. Compounds of the invention were incubated with 2 nM [^3H]Idazoxan for 30 minutes at 25° C. Non-specific binding was estimated in the presence of 1 μM Idazoxan. Receptor proteins were filtered and washed, the filters were then counted to determine [^3H]Idazoxan specifically bound. Compounds were screened at 1 μM or lower, using 1% DMSO as vehicle. Compounds of the invention were tested in this biochemical assay and percent inhibition of specific binding was determined. Biochemical assay results are presented as the percent inhibition of specific binding in Table 5.
# [4] = molecular target: T3, human recombinant serotonin (5-Hydroxytryptamine) 5-HT2A receptor (Homo sapiens, UniProt P28223); test: Serotonin 5-HT2A radioligand binding ([3H]Ketanserin); settings: compound at 1 μM; CHO-K1 cells; read-out: Serotonin (1 μM) 5-HT2A, percent inhibition of specific binding
# T3 construct: expressed in transfected cells; host or cells: CHO-K1 cells
# Protocol: To evaluate in radioligand binding assays the activity of compounds of the invention, human recombinant serotonin (5-Hydroxytryptamine) 5-HT2A receptor expressed in Chinese hamster ovary (CHO-K1) cells (Bonhaus, D. W. et al. Br. J. Pharmacol. 115:622, 1995; Saucier, C. and Albert, P. R., J. Neurochem. 68:1998, 1997) in a 50 mM Tris-HCl buffer, pH 7.4, was used. Compounds of the invention were incubated with 0.5 nM [^3H]Ketanserin for 60 minutes at 25° C. Non-specific binding was estimated in the presence of 1 μM Mianserin. Receptor proteins were filtered and washed, the filters were then counted to determine [^3H] Ketanserin specifically bound. Compounds were screened at 1 μM or lower, using 1% DMSO as vehicle. Biochemical assay results are presented as the percent inhibition of specific binding in Table 7.
# T3 sequence (P28223 whole entry): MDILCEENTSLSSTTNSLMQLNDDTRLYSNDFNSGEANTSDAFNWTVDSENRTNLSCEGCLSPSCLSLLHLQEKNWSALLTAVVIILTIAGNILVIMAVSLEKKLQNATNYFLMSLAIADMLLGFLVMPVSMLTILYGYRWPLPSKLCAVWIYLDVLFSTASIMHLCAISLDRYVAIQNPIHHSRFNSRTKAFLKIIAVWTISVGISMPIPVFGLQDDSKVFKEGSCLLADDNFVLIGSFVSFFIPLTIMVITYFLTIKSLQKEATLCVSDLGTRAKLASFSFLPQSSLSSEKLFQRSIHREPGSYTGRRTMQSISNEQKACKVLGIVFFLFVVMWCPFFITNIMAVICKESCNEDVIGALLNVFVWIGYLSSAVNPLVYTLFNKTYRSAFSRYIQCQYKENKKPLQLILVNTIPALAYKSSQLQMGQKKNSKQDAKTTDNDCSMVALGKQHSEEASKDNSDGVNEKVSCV
# T1 sequence (P34969 whole entry): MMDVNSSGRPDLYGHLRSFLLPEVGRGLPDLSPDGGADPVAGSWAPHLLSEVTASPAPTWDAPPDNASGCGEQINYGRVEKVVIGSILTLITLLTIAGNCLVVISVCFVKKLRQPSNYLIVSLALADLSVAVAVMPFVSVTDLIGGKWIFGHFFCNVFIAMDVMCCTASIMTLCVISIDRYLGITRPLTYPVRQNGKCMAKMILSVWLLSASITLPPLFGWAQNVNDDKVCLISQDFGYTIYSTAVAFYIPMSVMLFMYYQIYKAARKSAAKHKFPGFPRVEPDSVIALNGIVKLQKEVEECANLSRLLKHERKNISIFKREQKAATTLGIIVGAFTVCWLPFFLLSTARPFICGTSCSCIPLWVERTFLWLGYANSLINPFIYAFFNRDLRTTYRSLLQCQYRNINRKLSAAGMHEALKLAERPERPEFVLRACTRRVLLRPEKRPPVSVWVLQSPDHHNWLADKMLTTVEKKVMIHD
SMILES,inhibition at 1 µM [1],inhibition at 1 µM [2],"Imidazoline I2 Central (1 μM), percent inhibition of specific binding [3]",inhibition at 1 µM [4]
"CCOC(=O)CCn1c2c(c3cc(C)ccc31)CN(C)CC2 [CD1, ethyl 3-(1,2,3,4-tetrahydro-2,8-dimethylpyrido[4,3-b]indol-5-yl)propanoate]",85%,42%,55%,89%
"Cc1ccc2c(c1)c1c(n2CC#N)CCN(C)C1 [CD61, 2-(1,2,3,4-tetrahydro-2,8-dimethylpyrido[4,3-b]indol-5-yl)acetonitrile]",94%,94%,60%,77%
"C#CCn1c2c(c3cc(C)ccc31)CN(C)CC2 [CD73, 2,8-dimethyl-5-(prop-2-ynyl)-2,3,4,5-tetrahydro-1H-pyrido[4,3-b]indole]",91%,84%,73%,87%
"Cc1ccc2c(c1)c1c(n2CCC#N)CCN(C)C1 [CD92, 3-(2,8-dimethyl-3,4-dihydro-1H-pyrido[4,3-b]indol-5(2H)-yl)propanenitrile]",,,,67%
"CN1CCc2c(c3cc(Cl)ccc3n2CCC#N)C1 [CD94, 3-(8-chloro-2-methyl-3,4-dihydro-1H-pyrido[4,3-b]indol-5(2H)-yl)propanenitrile]",,,,60%
"CNC(=O)CCn1c2c(c3cc(C)ccc31)CN(C)CC2 [Compound 1, 3-(1,2,3,4-tetrahydro-2,8-dimethylpyrido[4,3-b]indol-5-yl)-N-methylpropanamide]",33%,13%,18%,30%
"CCNC(=O)CCn1c2c(c3cc(C)ccc31)CN(C)CC2 [Compound 2, N-ethyl-3-(1,2,3,4-tetrahydro-2,8-dimethylpyrido[4,3-b]indol-5-yl)propanamide]",47%,22%,8%,22%
"Cc1ccc2c(c1)c1c(n2CCC(=O)NC2CCCCC2)CCN(C)C1 [Compound 3, N-cyclohexyl-3-(1,2,3,4-tetrahydro-2,8-dimethylpyrido[4,3-b]indol-5-yl)propanamide]",36%,14%,27%,63%
"CN1CCc2c(c3cc(Cl)ccc3n2CC(=O)OC(C)(C)C)C1 [Compound 12, tert-butyl 2-(8-chloro-1,2,3,4-tetrahydro-2-methylpyrido[4,3-b]indol-5-yl)acetate]",,,,81%
"CN1CCc2c(c3cc(Cl)ccc3n2CC(=O)OCC2CCCCC2)C1 [Compound 14, cyclohexylmethyl 2-(8-chloro-1,2,3,4-tetrahydro-2-methylpyrido[4,3-b]indol-5-yl)acetate]",,,,103%
"CC(C)OC(=O)CCn1c2c(c3cc(Cl)ccc31)CN(C)CC2 [Compound 17, isopropyl 3-(8-chloro-1,2,3,4-tetrahydro-2-methylpyrido[4,3-b]indol-5-yl)propanoate]",,,,84%
"CN1CCc2c(c3cc(Cl)ccc3n2CCC(=O)OCc2ccccc2)C1 [Compound 19, benzyl 3-(8-chloro-1,2,3,4-tetrahydro-2-methylpyrido[4,3-b]indol-5-yl)propanoate]",,,,95%
"CN1CCc2c(c3cc(Cl)ccc3n2CCC(=O)OCC2CCCCC2)C1 [Compound 20, cyclohexylmethyl 3-(8-chloro-1,2,3,4-tetrahydro-2-methylpyrido[4,3-b]indol-5-yl)propanoate]",,,,102%
"CN1CCc2c(c3cc(Cl)ccc3n2CCC(=O)OC2CCCC2)C1 [Compound 21, cyclopentyl 3-(8-chloro-1,2,3,4-tetrahydro-2-methylpyrido[4,3-b]indol-5-yl)propanoate]",,,,98%
"Cc1ccc2c(c1)c1c(n2CC(=O)NC(C)(C)C)CCN(C)C1 [Compound 24, N-tert-butyl-2-(1,2,3,4-tetrahydro-2,8-dimethylpyrido[4,3-b]indol-5-yl)acetamide]",,,,9%
"Cc1ccc2c(c1)c1c(n2CC(=O)NCC2CCCCC2)CCN(C)C1 [Compound 26, N-(cyclohexylmethyl)-2-(1,2,3,4-tetrahydro-2,8-dimethylpyrido[4,3-b]indol-5-yl)acetamide]",,,,89%
Cc1ccc2c(c1)c1c(n2CCC(=O)NC(C)(C)C)CCN(C)C1 [Compound 28],,,,17%
Cc1ccc2c(c1)c1c(n2CCC(=O)Nc2ccccc2)CCN(C)C1 [Compound 29],,,,96%
"Cc1ccc2c(c1)c1c(n2CCC(N)=O)CCN(C)C1 [Compound 46, 3-(1,2,3,4-tetrahydro-2,8-dimethylpyrido[4,3-b]indol-5-yl)propanamide]",,,,33%
Cc1ccc2c(c1)c1c(n2CCC(=O)NC(C)C)CCN(C)C1 [Compound 53],,,,39%
"Cc1ccc2c(c1)c1c(n2CCNC(=O)c2ccc(F)cc2)CCN(C)C1 [Compound 66, 4-fluoro-N-(2-(1,2,3,4-tetrahydro-2,8-dimethylpyrido[4,3-b]indol-5-yl)ethyl)benzamide]",,,,98%
"CN1CCc2c(c3cc(Cl)ccc3n2CCC(N)=O)C1 [Compound 67, 3-(8-chloro-1,2,3,4-tetrahydro-2-methylpyrido[4,3-b]indol-5-yl)propanamide]",,,,55%
"Cc1ccc2c(c1)c1c(n2CCNC(=O)C2CCCC2)CCN(C)C1 [Compound 68, N-(2-(1,2,3,4-tetrahydro-2,8-dimethylpyrido[4,3-b]indol-5-yl)ethyl)cyclopentanecarboxamide]",,,,77%
"Cc1ccc2c(c1)c1c(n2CCNC(=O)c2ccncc2C)CCN(C)C1 [Compound 69, N-(2-(1,2,3,4-tetrahydro-2,8-dimethylpyrido[4,3-b]indol-5-yl)ethyl)-3-methylpyridine-4-carboxamide]",,,,30%
"Cc1ccc2c(c1)c1c(n2C2CCCCC2O)CCN(C)C1 (centres unmarked) [Compound 73, 2-(1,2,3,4-tetrahydro-2,8-dimethylpyrido[4,3-b]indol-5-yl)cyclohexanol]",5%,,,50%
